We go through 13 molecules from PubChem BioAssay (NCI).

“And” between values parts separate entries of the source, which are not always exact repeats. Equal values may be shown once.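 Interpolation was linear, between the two tested concentrations surrounding the appropriate level; five concentrations were tested over 48 hours in 96-well plates. GI50 is the concentration that inhibits growth by half. The concentration for full growth arrest is given as TGI.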

Experiment in all cases: inhibition of tumour cell growth, NCI panel, 48 h
Assay [1] relates to MALME-3M melanoma.
Assay [2] relates to DMS 273 small cell lung.
The subject of assay [3] is K-562 leukemia.
In assay [4] the test system is OVCAR-3 ovarian.
For assay [5], the system named is HCT-15 colon.
Assay [6] has as its system HOP-62 NSCLC.
In assay [7] the test system is HCC-2998 colon.
Assay [8] concerns RXF 393 renal.
Assay [9] has as its system DMS 114 small cell lung.
The subject of assay [10] is SR leukemia.

Take `CC(C)(C)c1cc(CCCCCCCC2(CCCCCCCc3cc(C(C)(C)C)cc(C(C)(C)C)c3)OC(COCCOCCCCCC#N)C(COCCOCCCCCC#N)O2)cc(C(C)(C)C)c1` (stereo unspecified): the TGI in assay [1], in assay [2], in assay [3], in [4], in assay [5] and in assay [6] was more than 100 µM throughout. Also, the TGI in assay [7], in assay [8] and in [9] was more than 100 µM in each case.
As to `CC1=NN(C(=O)Nc2ccc(Cl)cc2)C(=O)C2CCC(=O)N12` (stereo unspecified), the TGI was more than 100 µM in assay [2]; more than 100 µM in assay [3]; more than 100 µM in assay [4]; more than 100 µM in assay [10]; 44.2 µM in assay [5]; more than 100 µM in assay [6]. The TGI in [7], in [8] and in assay [9] was more than 100 µM each time.
As to `CC(=O)O[C@H]1CCN2C(=O)C=CC(OCc3ccccc3)C12` (stereo partly specified), the TGI in assay [1], in assay [2], in assay [3], in assay [4], in assay [5] and in [6] was more than 100 µM throughout. Further, the TGI in assay [7] and in assay [9] was more than 100 µM each time.
Turning to `N#CCC(=O)N/N=C1/C(=O)N(c2cc(Cl)ccc2Cl)C(=O)C(=O)C1c1nc2ccccc2s1` (stereo unspecified), the TGI in assay [1], in assay [2], in assay [3], in [4], in assay [5] and in [6] was more than 100 µM each time. Further, the results for the TGI in [7], in assay [8] and in assay [9] were more than 100 µM, 28.5 µM and more than 100 µM, respectively.
Take `CCOc1cn(C2OC(CO)C(O)C2O)c(=O)[nH]c1=O` (stereo unspecified): the TGI in assay [1], in assay [2], in assay [3], in assay [4], in assay [5] and in assay [6] was more than 100 µM each time. The TGI in assay [7], in assay [8] and in assay [9] was more than 100 µM throughout.
Regarding `O=C(OCCCl)C1OC(n2cc(F)c(=O)[nH]c2=O)CC1O` (stereo unspecified), the TGI in assay [1], in assay [3], in assay [4], in [5], in assay [6] and in [7] was more than 100 µM throughout. Besides, the TGI in assay [8] and in assay [9] was more than 100 µM each time.
Take `O=C1C(=C([O-])c2ccccc2)C(=O)c2ccccc21.O=C1C(=C([O-])c2ccccc2)C(=O)c2ccccc21.[Mn+2]`: the GI50 in [1] is more than 100 µM; in assay [2], 30.5 µM; in assay [4], 40.5 µM; in assay [5], 55.4 µM; in [7], more than 100 µM; in [8], 89.6 µM. For the same molecule, the TGI in assay [1], in [2], in assay [4], in assay [5], in [7] and in assay [8] was more than 100 µM in each case.
As for `CC(C)(C)c1cc(/C=N/NC(=O)c2ccccc2NC(=O)c2cccs2)c(O)c(C(C)(C)C)c1`, the GI50 was 2.11 µM in [1]; 1.1 µM in assay [3]; 1.06 µM in assay [4]; 0.786 µM in assay [10]; 0.22 µM in assay [5]; 0.779 µM in assay [6]. Besides, the GI50 in assay [7] was 0.88 µM; in [8], 3.02 µM. Further, the TGI was 26.7 µM in assay [1]; 51.6 µM in assay [3]; 10.5 µM in assay [4]; 3.6 µM in assay [10]; more than 100 µM in assay [5]; 21.6 µM in assay [6]. In addition, the TGI in assay [7] stood at 30.1 µM; in [8], 47.4 µM.
Regarding `Cc1ccc(/C=C(\NC(=O)c2ccccc2)c2nc3ccccc3[nH]2)cc1`, the TGI in [1], in assay [4], in [10], in [5], in assay [6] and in [7] was more than 100 µM in each case. Besides, the TGI in assay [8] and in [9] was more than 100 µM throughout.
As to `CCOc1ccc(/C=C/c2cc(OC)c(OC)c(OC)c2)cc1`, the TGI is 28.8 µM in [1]; more than 100 µM in assay [3]; 1.88 µM in assay [4]; more than 100 µM in assay [10]; more than 22.1 µM in [5]; 35.9 µM in assay [6]. Further, the TGI is 6.32 µM in assay [7], 5 µM in [8] and 5.15 µM in assay [9]. In [8], the GI50 was 0.448 µM.
With `CC(=O)OCCOCNC(=S)N/N=C/c1cc([N+](=O)[O-])ccc1O`, the TGI in assay [1], in assay [2], in assay [3], in [4], in assay [5] and in assay [6] was more than 100 µM in each case. For the same molecule, the TGI in assay [7], in [8] and in assay [9] was more than 100 µM each time.
As for `Oc1ccc2c3c1OC1c4[nH]ncc4C[C@H]4[C@@H](C2)N(CC2CC2)CC[C@]314` (stereo partly specified), the TGI in assay [1], in assay [3], in assay [4], in [10], in assay [5] and in [6] was more than 100 µM each time. Moreover, the TGI in [7] and in assay [8] was more than 100 µM each time.
Consider `CCc1cnn2c(NCc3ccc[n+]([O-])c3)cc(N3CCCC[C@H]3CCO)nc12`, for which the GI50 in [1] is < 0.0126 µM and 0.00754 µM; in assay [3], 0.0155 µM and 0.00449 µM; in [4] it was 0.00327 µM; in assay [10], < 0.01 µM and 0.0016 µM; in assay [5], 0.0351 µM and 0.0253 µM; in [6], < 0.01 µM and 0.00415 µM. Further, the GI50 in [7] is < 0.01 µM and 0.0045 µM; in assay [8] it was < 0.01 µM and 0.00188 µM. The TGI in assay [1] was 0.0272 µM and 0.0324 µM; in assay [3], more than 100 µM; in assay [4], more than 10 µM; in assay [10] it was less than 0.01 µM; in assay [5], more than 35 µM; in assay [6] it was 0.0351 µM. The TGI was 0.0492 µM and 0.0347 µM in assay [7]; < 0.01 µM and 0.00446 µM in assay [8].
